Experimental data from patent US10265329B2, “Altering steroid metabolism for treatment of steroid-dependent disease” (THE CLEVELAND CLINIC FOUNDATION, priority 2015, dated 2019).
One block for each compound: values may come before it.

Columns and labels:
[1] = patients; wide interpatient variability; cited from earlier work
CYP17A1 = biological target: T1, CYP17A1 (Homo sapiens, UniProt P05093); assay: Conversion of [3H]-pregnenolone to DHEA in 293 cells expressing CYP17A1; assay type: cell-based; details: 1 nM drug; 3 h incubation; vehicle 70.1%
T1 construct: expressed in transfected cells
T1 sequence (P05093 1-508): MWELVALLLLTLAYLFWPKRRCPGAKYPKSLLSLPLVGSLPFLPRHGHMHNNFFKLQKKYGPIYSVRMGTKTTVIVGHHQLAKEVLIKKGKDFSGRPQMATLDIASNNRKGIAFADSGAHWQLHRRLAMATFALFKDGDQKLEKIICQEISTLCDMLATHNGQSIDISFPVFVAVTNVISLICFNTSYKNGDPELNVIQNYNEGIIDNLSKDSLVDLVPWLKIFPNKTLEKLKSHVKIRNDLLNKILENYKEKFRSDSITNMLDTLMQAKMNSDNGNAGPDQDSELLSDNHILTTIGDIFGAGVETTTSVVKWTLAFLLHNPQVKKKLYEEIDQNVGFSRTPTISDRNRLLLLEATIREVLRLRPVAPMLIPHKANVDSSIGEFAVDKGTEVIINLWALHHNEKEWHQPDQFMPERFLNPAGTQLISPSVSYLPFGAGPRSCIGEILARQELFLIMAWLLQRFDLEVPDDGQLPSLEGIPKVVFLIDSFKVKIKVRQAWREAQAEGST
From the text: LNCaP and VCaP cells were purchased from the American Type Culture Collection (Manassas, Va.) and maintained in RPMI-1640 with 10% FBS. LAPC4 cells were kindly provided by Dr. Charles Sawyers (Memorial Sloan Kettering Cancer Center, New York, N.Y.) and grown in Iscove's Modified Dulbecco's Medium with 10% FBS. C4-2 cells were kindly provided by Dr. Leland Chung (Cedars-Sinai Medical Center, Los Angeles, Calif.) and maintained in RPMI-1640 with 10% FBS. All experiments done with LNCaP and VCaP were done in plates coated with poly-DL-ornithine (Sigma-Aldrich, St. Louis, Mo.). A 293 cell line stably expressing human CYP17A1 was generated by transfection with plasmid pcDNA3-CYP17 (a generous gift of Dr. Walter Miller, University of California, San Francisco) and selection with G418. Cell lines was authenticated by DDC Medical (Fairfield, Ohio) and determined to be […] mycoplasma free with primers.
Cell Line Metabolism: Cells were seeded and incubated in 12-well plates with 0.2 million cells/well for ˜24 h and then incubated with a mixture of radioactive ([^3H]-labeled) and non-radioactive androgens (final concentration, 100 nM; ˜1,000,000 cpm/well; PerkinElmer, Waltham, Mass.) at 37° C. Aliquots of medium were collected at the indicated times. Collected medium was treated with 1,000 units of β-glucuronidase (Helix pomatia; Sigma-Aldrich) at 65° C. for 2 h, extracted with 860 μL ethyl acetate:isooctane (1:1), and concentrated under nitrogen gas. Xenograft Metabolism: 10^7 LNCaP or VCaP cells were injected subcutaneously with Matrigel into surgically orchiectomized NSG mice that were implanted with 5 mg 90-day sustained-release DHEA pellets (Innovative Research of American, Sarasota, Fla.). Xenografts were harvested when they reached 1000 mm^3, minced, and cultured in DMEM with 10% FBS at 37° C. with mixture of radioactive ([^3H]-labeled) and non-radioactive androgens, or Abi, when they reached 1000 mm^3. Each xenograft was analyzed in triplicate in at least three independent experiments. Aliquots of medium were collected at the indicated times. […]
Dried samples were reconstituted in 50% methanol and injected into the HPLC. […] Alternatively, dried samples were applied to plastic-backed silica gel plates and separated by thin-layer chromatography (TLC) using a mobile phase of 3:1 chloroform:ethyl acetate, followed by exposure of the plates to a phosphorimager screen and quantitated with a Storm model 860 phosphorimager (Applied Biosystems, Foster City, Calif.). […]
Cell lines, drugs and constructs. […] Cell lines were authenticated by DDC Medical (Fairfield, Ohio) and determined to be mycoplasma free with primers. […]

[2] = Phase II clinical trial NCT01393730: serum Abi metabolites before and after dutasteride; assay type: in vivo, human
Procedure: Twelve patients with CRPC undergoing treatment with Abi acetate at Cleveland Clinic were consented under an Institutional Review Board—approved protocol (Case 7813). Blood was collected using Vacutainer Plus serum blood collection tubes (#BD367814, Becton Dickenson, Franklin Lakes, N.J.), between 1 and 16 hours after the 1000 mg daily dose of Abi acetate was administered, and allowed to clot. Tubes were centrifuged at 2500 RPM or 1430×g for 10 minutes. Serum aliquots were frozen at −80° C. until processing. To study the effect of dutasteride on Abi metabolism, serum samples were collected from patients treated on a phase II clinical trial at Dana-Farber Cancer Institute (NCT01393730). Each patient received Abi acetate (1,000 mg daily) plus prednisone (5 mg daily) for 2 cycles (8 weeks) and then additional treatment with dutasteride ([…]) was initiated. Samples were collected on treatment with Abi alone and after addition of dutasteride (start of cycles 3, 4 and 7). Seventeen patients treated at this institution on this clinical trial had blood available from all 3 time points. One patient had Abi concentrations that were under the limit of detection and was later determine to have stopped treatment because of adverse effects and was therefore not included in the analysis. Drug metabolites and internal standard (d4-abiraterone, Toronto Research Chemicals Inc, Ontario Canada) were extracted from 100 μL of patient serum with methyl tert-butyl ether (Sigma Aldrich, St. Louis, Mo.), evaporated under a stream of nitrogen gas and reconstituted in methanol:water (50:50) prior to mass spectrometry analysis. Standard curves were generated using human serum spiked with known concentrations of each metabolite to enable determination of unknown concentrations in patient samples
Samples were analyzed on a ultra high-performance liquid chromatography station (Shimadzu, Kyoto, Japan) with a DGU-20A3R degasser, 2 LC-30AD pumps, a SIL-30AC autosampler, a CTO-10A column oven and a CBM-20A system controller in tandem with a QTRAP 5500 mass spectrometer (AB Sciex, Framingham, Mass.). Drug metabolites were ionized using electrospray ionization in positive ion mode. Multiple reaction monitoring was used to follow mass transitions for Abi, IS, and the metabolites (Table 1). Due to the similarity in structure and mass transitions for the metabolites it was necessary to separate them with chromatography. Separation of drug metabolites was achieved using a mobile phase consisting of LC-MS grade (Fisher) methanol: acetonitrile: water:formic acid (39:26:34:1) at a flow rate of 0.2 ml/min., and C18 analytical column; Zorbax Eclipse plus 150×2.1 mm, 3.5 μm (Agilent, Santa Clara, Calif.).

SRD5A1 = biological target: T2, SRD5A1 (Homo sapiens, UniProt P18405); details: LAPC4 cells
T2 sequence (P18405 1-259): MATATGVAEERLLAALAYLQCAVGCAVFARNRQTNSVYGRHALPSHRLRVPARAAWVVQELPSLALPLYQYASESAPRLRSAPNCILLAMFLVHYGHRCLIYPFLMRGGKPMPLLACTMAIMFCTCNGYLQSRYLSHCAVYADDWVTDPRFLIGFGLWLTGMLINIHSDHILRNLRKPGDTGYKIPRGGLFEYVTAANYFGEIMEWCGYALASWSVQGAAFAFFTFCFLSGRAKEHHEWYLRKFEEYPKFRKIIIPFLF
Procedure: Cell Line Metabolism: 0.2 million/ml cells were seeded and incubated in 12-well plates for ˜24 h before incubation with the indicated drugs or a mixture of [^3H]-labeled (˜1,000,000 cpm/well; PerkinElmer, Waltham, Mass.) and non-radioactive androgens (final concentration, 100 nM) at 37° C. Collected medium was treated with β-glucuronidase (Helix pomatia; Sigma-Aldrich), extracted with ethyl acetate:isooctane (1:1), and concentrated under nitrogen gas as described.
Dried samples were reconstituted in 50% methanol and separated on Kinetex 100×2.1 mm, 2.6 μm particle size C18 reverse-phase column (Phenomenex, Torrance, Calif.) using a methanol/water gradient at 30° C. The column effluent was analyzed using a 254 nm UV-visible detector or β-RAM model 3 in-line radioactivity detector (IN/US Systems, Inc.) using Liquiscint scintillation cocktail (National Diagnostics, Atlanta, Ga.). All HPLC studies were conducted in triplicate and repeated at least 3 times in independent experiments. Results are shown as mean±SD.

LNCaP cells = assay: Cell proliferation assay, DHT-stimulated growth; assay type: cell-based, human; details: DHT 0.5 nM, 2, 4 and 6 days
Procedure: LNCaP cells (0.1 million/mL) were seeded in 96-well plates and cultured in phenol red free RPMI-1640 mediums plus 10% charcoal stripped FBS with androgens and/or drugs. Medium was changed every other day. After 2, 4 or 6 days, cells were collected and lysed after treatment. Growth was then determined based on DNA content as detected by Hoechst stain and a Wallac Victor2 1420 Multilabel counter (Perkin Elmer). Two-tailed student's t-test was used to determine significance.

SRD5A = biological target: T3, SRD5A (Homo sapiens, UniProt P18405); assay: Conversion of [3H]-AD to 5α-reduced androgens in LAPC4 cells; assay type: cell-based; details: up to 100 μM; LAPC4 cells
T3 construct: endogenous in cells; host or cells: LAPC4
T3 sequence (P18405 1-259): T2 sequence (P18405 1-259)
Procedure: Cell Line Metabolism: Cells were seeded and incubated in 12-well plates with 0.2 million cells/well for ˜24 h and then incubated with a mixture of radioactive ([^3H]-labeled) and non-radioactive androgens (final concentration, 100 nM; ˜1,000,000 cpm/well; PerkinElmer, Waltham, Mass.) at 37° C. Aliquots of medium were collected at the indicated times. Collected medium was treated with 1,000 units of β-glucuronidase (Helix pomatia; Sigma-Aldrich) at 65° C. for 2 h, extracted with 860 μL ethyl acetate:isooctane (1:1), and concentrated under nitrogen gas. Xenograft Metabolism: 10^7 LNCaP or VCaP cells were injected subcutaneously with Matrigel into surgically orchiectomized NSG mice that were implanted with 5 mg 90-day sustained-release DHEA pellets (Innovative Research of American, Sarasota, Fla.). Xenografts were harvested when they reached 1000 mm^3, minced, and cultured in DMEM with 10% FBS at 37° C. with mixture of radioactive ([^3H]-labeled) and non-radioactive androgens, or Abi, when they reached 1000 mm^3. Each xenograft was analyzed in triplicate in at least three independent experiments. Aliquots of medium were collected at the indicated times. Collected medium was treated with 1,000 units of β-glucuronidase at 65° C. for 2 h, extracted with 860 μL ethyl acetate:isooctane (1:1), and concentrated under nitrogen gas.
Dried samples were reconstituted in 50% methanol and injected into the HPLC. Steroids and drug metabolites were separated on Kinetex 100×2.1 mm, 2.6 μm particle size C18 reverse-phase column (Phenomenex, Torrance, Calif.) using a methanol/water gradient at 30° C. […] Alternatively, dried samples were applied to plastic-backed silica gel plates and separated by thin-layer chromatography (TLC) using a mobile phase of 3:1 chloroform:ethyl acetate, followed by exposure of the plates to a phosphorimager screen and quantitated with a Storm model 860 phosphorimager (Applied Biosystems, Foster City, Calif.). […] Results are shown as mean±SD.
Collected medium was treated with β-glucuronidase (Helix pomatia; Sigma-Aldrich), extracted with ethyl acetate:isooctane (1:1), and concentrated under nitrogen gas as described. Li et al., 523, 347-351 (2015).
Dried samples were reconstituted in 50% methanol and separated on Kinetex 100×2.1 mm, 2.6 μm particle size C18 reverse-phase column (Phenomenex, Torrance, Calif.) using a methanol/water gradient at 30° C. […] Results are shown as mean±SD.

SMILES: C[C@]12CC[C@H](O)C[C@@H]1CC[C@@H]1[C@@H]2CC[C@]2(C)C(c3cccnc3)=CC[C@@H]12 [Compound 3β-OH-5α-Abi, 17-(3-pyridyl)-5α-androsta-16-ene-3β-ol]
- decline in mean serum concentration after the addition of dutasteride ([2]; cycle 3 vs. cycle 4): 73%

SMILES: C[C@]12C=CC(=O)N[C@@H]1CC[C@@H]1[C@@H]2CC[C@]2(C)[C@@H](C(=O)Nc3cc(C(F)(F)F)ccc3C(F)(F)F)CC[C@@H]12 [dutasteride]
- block of conversion of D4A to 5α-Abi and 3α-OH-5α-Abi (SRD5A1): blocks conversion

SMILES: CNC(=O)c1ccc(N2C(=S)N(c3ccc(C#N)c(C(F)(F)F)c3)C(=O)C2(C)C)cc1F [enzalutamide, reference compound]
- effect on DHT-stimulated cell growth (LNCaP cells): more potent than Abi
- effect on conversion from AD to 5α-reduced androgens (SRD5A): no detectable effect

Continued, in another order:

- % conversion to DHEA (CYP17A1): 2.6%
- mean serum concentration, cycle 3 ([2]; Abi acetate 1000 mg daily plus prednisone alone, 16 patients): 191.2 nM
- mean serum concentration, cycle 4 ([2]; after addition of dutasteride 3.5 mg once daily, 16 patients): 372.4 nM
SMILES: C[C@]12CC[C@H](O)CC1=CC[C@@H]1[C@@H]2CC[C@]2(C)C(c3cccnc3)=CC[C@@H]12 [Abi, Abiraterone, reference compound]
- Cmax [1]: ~1000 nM

- block of conversion of D4A to 5α-Abi and 3α-OH-5α-Abi (SRD5A1): blocks conversion
SMILES: CN1C(=O)CC[C@@H]2c3ccc(Cl)cc3CC[C@H]21 [LY191704]
